System: HT-29 cells
Experiment: HT-29 cell necrosis/necroptosis inhibition (TNF-α + SMAC mimetic + zVAD-FMK; CellTiter-Glo cell viability)
Type: cell-based
Conditions: Homo sapiens; HT-29 cells, TNF-α 10 ng/ml + SMAC mimetic 6 μM + zVAD-FMK 10 μM, 20 hours; geometric mean, 10 points in duplicate; read-out: EC50 (Cell activity; Necrosis/Necroptosis Inhibitory Activity, Compounds 1-142)
Procedure: Compounds 1-319 (denoted as Compound Nos. 1 through 319 in Table 3 and 4) of the disclosure were tested for binding and cellular RIP1 inhibitory activity following the experimental procedures described below.
• Cell line: HT-29 (ATCC® HTB-38™) • Culture medium: McCOY's 5A, Gibco, Cat No. 16600-082 • FBS, Gibco, Cat No. 10099-141C • Trypsin: Gibco, Cat No. 25200-056 • DMSO: Sigma, Cat No. 67-68-5, 1L • Assay plate: Corning #3903 • Compound dilution plate: Corning #3357 • Inducers: TNFα, GenScript, Cat No. Z01001-50, • SmacM, Cat. No., HY-15989, MedChemExpress (MCE) • Z_VAD FMK, TargetMol, T6013 • Cell Titer-Glo® Luminescent Cell Viability Assay Kit: Promega, Cat No. G7573 • EnVision: PerkinElmer, 2105-0010 Methods Cell Seeding
1. HT-29 cells were checked every day to make sure that they were healthy and growing as expected. They were subjected to sub-culturing when they were approximately 80% confluent.
2. The culture medium, McCOY's 5A medium (Gibco, Cat No. 16600-082) with 10% fetal bovine serum or FBS (Gibco, Cat No. 10099-141C), was pre-warmed in a 37° C. water bath for at least 30 min.
3. When the cells had reached a desired level of confluency of 80% in a T75 flask, the medium was aspirated, and the cells were washed with warm phosphate buffered saline or PBS two times.
4. 2-3 ml fresh warm trypsin (Gibco, Cat No. 25200-056) solution was added to the washed cells. The flask with the cells was transferred to a 37° C. incubator.
5. After 5 minutes, the side of the flask was tapped, and the flask was examined under a microscope for detachment of the cells to the flask. If necessary, the cells were kept in the incubator for an additional 5-10 minutes, with occasional tapping, until lifting was complete.
6. The trypsin reaction was neutralized by transferring 6-9 ml cell culture medium to sterile 15 ml conical tubes, and by centrifuging the cell culture at 300×g for 7 minutes to pellet the cells (supernatant decanted).
7. The cells were resuspended in fresh cell culture medium and the cell counting was performed using a hemocytometer.
8. 100 μl of the resuspended cell culture medium containing ˜5,000 cells were transferred into each well of the sterile 96-well cell culture plate (Corning 3903) and cultured overnight at 37° C. with 5% CO2.
Compound Titration and Treatment
1. All test compounds were dissolved in DMSO (Dimethyl sulfoxide) to create a 20 mM stock.
2. 3 μl of each compound 20 mM stock was mixed with 27 μl DMSO, and the compound solution was further diluted at a titration ratio of 1:3 (20 μl compound solution+40 μl DMSO) till the 10 points end.
3. All culture medium was removed from assay plates filled with HT-29 cell cultures. The cells were then washed with 1 PBS, and resuspended in fresh, FBS-free McCOY's 5A medium containing a cocktail of TNF-α (10 ng/ml), a SMAC mimetic compound (6 μM) and Z-VAD-fluoromethylketone or zVAD-FMK (10 μM) to stimulate the HT-29 cells to increase RIP1 kinase levels and necroptosis.
4. 0.5 μL of the diluted compound solution was added to the corresponding 96-well assay plates.
5. The assay plates were incubated for 20 hours at 37° C. with 5% CO2.
1. The CellTiter-Glo® Luminescent Cell Viability Assay was employed to detect the ATP levels of viable HT-29 cells.
2. The CellTiter-Glo® buffer and the lyophilized substrate were equilibrated to room temperature prior to use.
3. The CellTiter-Glo® substrate was resuspended with CellTiter-Glo® buffer, then mixed by gently vortexing to obtain a homogeneous solution.
4. 20 μl the enzyme/substrate mixture was transferred by multi-channel pipetting into 96-well assay plates.
5. The assay plates were placed on an orbital shaker and the contents were shaken for 3 minutes to induce cell lysis.
6. The assay plates were incubated at room temperature for 10 minutes to stabilize the luminescent signal.
7. The luminescence signals were read and recorded with EnVision.
8. The geometric mean EC50 values were calculated from 10 points response dose with duplicates. In

SMILES	EC50
N#Cc1cn(-c2ccnc(N3CCN(C(=O)N4N=CC[C@H]4c4cc(F)cc(F)c4)CC3)n2)cn1 [Compound 2, (S)-1-(2-(4-(5-(3,5-difluorophenyl)-4,5-dihydro-1H-pyrazole-1-carbonyl)piperazin-1-yl)pyrimidin-4-yl)-1H-imidazole-4-carbonitrile]	0.1 to 100 nM
O=C(N1CCN(c2nccc(C3=NCCN3)n2)CC1)N1N=CC[C@H]1c1cc(F)cc(F)c1 [Compound 3, (S)-(5-(3,5-difluorophenyl)-4,5-dihydro-1H-pyrazol-1-yl)(4-(4-(4,5-dihydro-1H-imidazol-2-yl)pyrimidin-2-yl)piperazin-1-yl)methanone]	0.1 to 100 nM
O=C(N1CCN(c2nccc(-c3nnn[nH]3)n2)CC1)N1N=CC[C@H]1c1cc(F)cc(F)c1 [Compound 4, (S)-(4-(4-(1H-tetrazol-5-yl)pyrimidin-2-yl)piperazin-1-yl)(5-(3,5-difluorophenyl)-4,5-dihydro-1H-pyrazol-1-yl)methanone]	0.1 to 100 nM
O=C(N1CCN(c2ccnc(-c3ccc[nH]3)n2)CC1)N1N=CC[C@H]1c1cc(F)cc(F)c1 [Compound 5, (S)-(4-(2-(1H-pyrrol-2-yl)pyrimidin-4-yl)piperazin-1-yl)(5-(3,5-difluorophenyl)-4,5-dihydro-1H-pyrazol-1-yl)methanone]	0.1 to 100 nM
O=C(N1CCN(c2nccc(-c3ccc[nH]3)n2)CC1)N1N=CC[C@H]1c1cc(F)cc(F)c1 [Compound 6, (S)-(4-(4-(1H-pyrrol-2-yl)pyrimidin-2-yl)piperazin-1-yl)(5-(3,5-difluorophenyl)-4,5-dihydro-1H-pyrazol-1-yl)methanone]	0.1 to 100 nM
O=C(N1CCN(c2ncc(F)c(-c3cc[nH]n3)n2)CC1)N1N=CC[C@H]1c1cc(F)cc(F)c1 [Compound 7, (S)-(5-(3,5-difluorophenyl)-4,5-dihydro-1H-pyrazol-1-yl)(4-(5-fluoro-4-(1H-pyrazol-3-yl)pyrimidin-2-yl)piperazin-1-yl)methanone]	0.1 to 100 nM
O=C(N1CCN(c2ncc(F)c(-c3cnn[nH]3)n2)CC1)N1N=CC[C@H]1c1cc(F)cc(F)c1 [Compound 8, (S)-(5-(3,5-difluorophenyl)-4,5-dihydro-1H-pyrazol-1-yl)(4-(5-fluoro-4-(1H-1,2,3-triazol-5-yl)pyrimidin-2-yl)piperazin-1-yl)methanone]	0.1 to 100 nM
COC(=O)c1c[nH]c(-c2ccnc(N3CCN(C(=O)N4N=CC[C@H]4c4cc(F)cc(F)c4)CC3)n2)c1 [Compound 9, methyl (5)-5-(2-(4-(5-(3,5-difluorophenyl)-4,5-dihydro-1H-pyrazole-1-carbonyl)piperazin-1-yl)pyrimidin-4-yl)-1H-pyrrole-3-carboxylate]	0.1 to 100 nM
NC(=O)c1c[nH]c(-c2ccnc(N3CCN(C(=O)N4N=CC[C@H]4c4cc(F)cc(F)c4)CC3)n2)c1 [Compound 10, (S)-5-(2-(4-(5-(3,5-difluorophenyl)-4,5-dihydro-1H-pyrazole-1-carbonyl)piperazin-1-yl)pyrimidin-4-yl)-1H-pyrrole-3-carboxamide]	0.1 to 100 nM
NC(=O)c1cnn(-c2ccnc(N3CCN(C(=O)N4N=CC[C@H]4c4ccccc4)CC3)n2)c1 [Compound 11, (S)-1-(2-(4-(5-phenyl-4,5-dihydro-1H-pyrazole-1-carbonyl)piperazin-1-yl)pyrimidin-4-yl)-1H-pyrazole-4-carboxamide]	0.1 to 100 nM
COC(=O)c1c[nH]c(-c2nc(N3CCN(C(=O)N4N=CC[C@H]4c4cc(F)cc(F)c4)CC3)ncc2F)c1 [Compound 12, methyl (S)-5-(2-(4-(5-(3,5-difluorophenyl)-4,5-dihydro-1H-pyrazole-1-carbonyl)piperazin-1-yl)-5-fluoropyrimidin-4-yl)-1H-pyrrole-3-carboxylate]	0.1 to 100 nM
Cc1n[nH]cc1-c1nc(N2CCN(C(=O)N3N=CC[C@H]3c3cc(F)cc(F)c3)CC2)ncc1F [Compound 13, (S)-(5-(3,5-difluorophenyl)-4,5-dihydro-1H-pyrazol-1-yl)(4-(5-fluoro-4-(3-methyl-1H-pyrazol-4-yl)pyrimidin-2-yl)piperazin-1-yl)methanone]	0.1 to 100 nM
Cc1nn(C)cc1-c1nc(N2CCN(C(=O)N3N=CC[C@H]3c3cc(F)cc(F)c3)CC2)ncc1F [Compound 14, (S)-(5-(3,5-difluorophenyl)-4,5-dihydro-1H-pyrazol-1-yl)(4-(4-(1,3-dimethyl-1H-pyrazol-4-yl)-5-fluoropyrimidin-2-yl)piperazin-1-yl)methanone]	0.1 to 100 nM
Cn1ncc(Cl)c1-c1nc(N2CCN(C(=O)N3N=CC[C@H]3c3cc(F)cc(C#N)c3)CC2)ncc1F [Compound 15, (5)-3-(1-(4-(4-(4-chloro-1-methyl-1H-pyrazol-5-yl)-5-fluoropyrimidin-2-yl)piperazine-1-carbonyl)-4,5-dihydro-1H-pyrazol-5-yl)-5-fluorobenzonitrile]	0.1 to 100 nM
Cc1cn(-c2nc(N3CCN(C(=O)N4N=CC[C@H]4c4cc(F)cc(C#N)c4)CC3)ncc2F)c(C#N)n1 [Compound 16, (S)-1-(2-(4-(5-(3-cyano-5-fluorophenyl)-4,5-dihydro-1H-pyrazole-1-carbonyl)piperazin-1-yl)-5-fluoropyrimidin-4-yl)-4-methyl-1H-imidazole-2-carbonitrile]	0.1 to 100 nM
NC(=O)c1cnn(-c2ccnc(N3CCN(C(=O)N4N=CC[C@H]4c4cccc(F)c4)CC3)n2)c1 [Compound 17, (S)-1-(2-(4-(5-(3-fluorophenyl)-4,5-dihydro-1H-pyrazole-1-carbonyl)piperazin-1-yl)pyrimidin-4-yl)-1H-pyrazole-4-carboxamide]	0.1 to 100 nM
Cc1nn(CC(N)=O)cc1-c1nc(N2CCN(C(=O)N3N=CC[C@H]3c3cc(F)cc(F)c3)CC2)ncc1F [Compound 18, (S)-2-(4-(2-(4-(5-(3,5-difluorophenyl)-4,5-dihydro-1H-pyrazole-1-carbonyl)piperazin-1-yl)-5-fluoropyrimidin-4-yl)-3-methyl-1H-pyrazol-1-yl)acetamide]	0.1 to 100 nM
COc1cc(-c2nc(N3CCN(C(=O)N4N=CC[C@H]4c4cc(F)cc(F)c4)CC3)ncc2F)nc(OC)n1 [Compound 19, (S)-(5-(3,5-difluorophenyl)-4,5-dihydro-1H-pyrazol-1-yl)(4-(5-fluoro-2′,6′-dimethoxy-[4,4′-bipyrimidin]-2-yl)piperazin-1-yl)methanone]	0.1 to 100 nM
O=C(N1CCN(c2ncc(F)c(-c3n[nH]nc3I)n2)CC1)N1N=CC[C@H]1c1cc(F)cc(F)c1 [Compound 20, (S)-(5-(3,5-difluorophenyl)-4,5-dihydro-1H-pyrazol-1-yl)(4-(5-fluoro-4-(5-iodo-1H-1,2,3-triazol-4-yl)pyrimidin-2-yl)piperazin-1-yl)methanone]	0.1 to 100 nM
O=C(O)c1c[nH]c(-c2nc(N3CCN(C(=O)N4N=CC[C@H]4c4cc(F)cc(F)c4)CC3)ncc2F)c1 [Compound 21, (S)-5-(2-(4-(5-(3,5-difluorophenyl)-4,5-dihydro-1H-pyrazole-1-carbonyl)piperazin-1-yl)-5-fluoropyrimidin-4-yl)-1H-pyrrole-3-carboxylic acid]	0.1 to 100 nM
N#Cc1cc(F)cc([C@@H]2CC=NN2C(=O)N2CCN(c3ncc(F)c(-c4cc[nH]n4)n3)CC2)c1 [Compound 22, (S)-3-fluoro-5-(1-(4-(5-fluoro-4-(1H-pyrazol-3-yl)pyrimidin-2-yl)piperazine-1-carbonyl)-4,5-dihydro-1H-pyrazol-5-yl)benzonitrile]	0.1 to 100 nM
